Measurements taken from ChEMBL document CHEMBL5723582, “Data for DCP probe T-10430” (2024).

Experiments:
[1] = target: Type-1 angiotensin II receptor (Homo sapiens, UniProt P30556); test: IP-One assay (AGTR1), antagonist mode at up to 50 µM ( vs. 10 nM Val5-Angiotensin II); format: functional; set-up: compound concentration < 50 uM
[2] = target: Beta-1 adrenergic receptor (Homo sapiens) (UniProt P08588); test: RLU of ADRB1 at 1.0 µM in the […] PRESTO-Tango GPCRome screen; details: Compound concentration 1.0 uM
[3] = target: Type-2 angiotensin II receptor (Homo sapiens) (UniProt P50052); test: RLU of AGTR2 at 1.0 µM in the […] PRESTO-Tango GPCRome screen; details: Compound concentration 1.0 uM
[4] = target: Vasopressin V1b receptor (Homo sapiens) (UniProt P47901); test: RLU of AVPR1B at 1.0 µM in the […] PRESTO-Tango GPCRome screen; details: Compound concentration 1.0 uM
[5] = target: Cholecystokinin receptor type A (Homo sapiens) (UniProt P32238); test: RLU of CCKAR at 1.0 µM in the […] PRESTO-Tango GPCRome screen; details: Compound concentration 1.0 uM
[6] = target: Muscarinic acetylcholine receptor M1 (Homo sapiens) (UniProt P11229); test: RLU of CHRM1 at 1.0 µM in the […] PRESTO-Tango GPCRome screen; details: Compound concentration 1.0 uM
[7] = target: Cannabinoid receptor 1 (Homo sapiens) (UniProt P21554); test: RLU of CNR1 at 1.0 µM in the […] PRESTO-Tango GPCRome screen; details: Compound concentration 1.0 uM
[8] = target: C-X-C chemokine receptor type 6 (Homo sapiens) (UniProt O00574); test: RLU of CXCR6 at 1.0 µM in the […] PRESTO-Tango GPCRome screen; details: Compound concentration 1.0 uM
[9] = target: Endothelin receptor type B (Homo sapiens) (UniProt P24530); test: RLU of EDNRB at 1.0 µM in the […] PRESTO-Tango GPCRome screen; details: Compound concentration 1.0 uM
[10] = target: Glucagon receptor (Homo sapiens) (UniProt P47871); test: RLU of GCGR at 1.0 µM in the […] PRESTO-Tango GPCRome screen; details: Compound concentration 1.0 uM
[11] = target: Glucagon-like peptide 1 receptor (Homo sapiens) (UniProt P43220); test: RLU of GLP1R at 1.0 µM in the […] PRESTO-Tango GPCRome screen; details: Compound concentration 1.0 uM
[12] = target: Probable G-protein coupled receptor 152 (Homo sapiens) (UniProt Q8TDT2); test: RLU of GPR152 at 1.0 µM in the […] PRESTO-Tango GPCRome screen; details: Compound concentration 1.0 uM
[13] = target: Probable G-protein coupled receptor 162 (Homo sapiens) (UniProt Q16538); test: RLU of GPR162 at 1.0 µM in the […] PRESTO-Tango GPCRome screen; details: Compound concentration 1.0 uM
[14] = target: N-arachidonyl glycine receptor (Homo sapiens) (UniProt Q14330); test: RLU of GPR18 at 1.0 µM in the […] PRESTO-Tango GPCRome screen; details: Compound concentration 1.0 uM
[15] = target: Probable G-protein coupled receptor 21 (Homo sapiens) (UniProt Q99679); test: RLU of GPR21 at 1.0 µM in the […] PRESTO-Tango GPCRome screen; details: Compound concentration 1.0 uM
[16] = target: Prostaglandin D2 receptor 2 (Homo sapiens) (UniProt Q9Y5Y4); test: RLU of GPR44 at 1.0 µM in the […] PRESTO-Tango GPCRome screen; details: Compound concentration 1.0 uM
[17] = target: Melatonin-related receptor (Homo sapiens) (UniProt Q13585); test: RLU of GPR50 at 1.0 µM in the […] PRESTO-Tango GPCRome screen; details: Compound concentration 1.0 uM
[18] = target: G-protein coupled receptor 62 (Homo sapiens) (UniProt Q9BZJ7); test: RLU of GPR62 at 1.0 µM in the […] PRESTO-Tango GPCRome screen; details: Compound concentration 1.0 uM
[19] = target: G-protein coupled receptor family C group 6 member A (Homo sapiens) (UniProt Q5T6X5); test: RLU of GPRC6A at 1.0 µM in the […] PRESTO-Tango GPCRome screen; details: Compound concentration 1.0 uM
[20] = target: Histamine H3 receptor (Homo sapiens) (UniProt Q9Y5N1); test: RLU of HRH3 at 1.0 µM in the Aequorin PRESTO-Tango GPCRome screen; details: Compound concentration 1.0 uM
[21] = target: 5-hydroxytryptamine receptor 2A (Homo sapiens) (UniProt P28223); test: RLU of HTR2A at 1.0 µM in the […] PRESTO-Tango GPCRome screen; details: Compound concentration 1.0 uM
[22] = target: Leukotriene B4 receptor 1 (Homo sapiens, UniProt Q15722); test: RLU of LTB4R at 1.0 µM in the […] PRESTO-Tango GPCRome screen; details: Compound concentration 1.0 uM
[23] = target: Proto-oncogene Mas (Homo sapiens) (UniProt P04201); test: RLU of MAS1 at 1.0 µM in the […] PRESTO-Tango GPCRome screen; details: Compound concentration 1.0 uM
[24] = target: Melanin-concentrating hormone receptor 1 (Homo sapiens) (UniProt Q99705); test: RLU of MCHR1 at 1.0 µM in the […] PRESTO-Tango GPCRome screen; details: Compound concentration 1.0 uM
[25] = target: Melanin-concentrating hormone receptor 2 (Homo sapiens) (UniProt Q969V1); test: RLU of MCHR2 at 1.0 µM in the […] PRESTO-Tango GPCRome screen; details: Compound concentration 1.0 uM
[26] = target: Mas-related G-protein coupled receptor member D (Homo sapiens) (UniProt Q8TDS7); test: RLU of MRGPRD at 1.0 µM in the […] PRESTO-Tango GPCRome screen; details: Compound concentration 1.0 uM
[27] = target: Neuromedin-U receptor 1 (Homo sapiens) (UniProt Q9HB89); test: RLU of NMUR1 at 1.0 µM in the […] PRESTO-Tango GPCRome screen; details: Compound concentration 1.0 uM
[28] = target: Neuropeptide FF receptor 2 (Homo sapiens) (UniProt Q9Y5X5); test: RLU of NPFF2 at 1.0 µM in the […] PRESTO-Tango GPCRome screen; details: Compound concentration 1.0 uM
[29] = target: Neurotensin receptor type 1 (Homo sapiens) (UniProt P30989); test: RLU of NTSR1 at 1.0 µM in the […] PRESTO-Tango GPCRome screen; details: Compound concentration 1.0 uM
[30] = target: Kappa-type opioid receptor (Homo sapiens) (UniProt P41145); test: RLU of OPRK1 at 1.0 µM in the […] PRESTO-Tango GPCRome screen; details: Compound concentration 1.0 uM
[31] = target: Platelet-activating factor receptor (Homo sapiens) (UniProt P25105); test: RLU of PTAFR at 1.0 µM in the […] PRESTO-Tango GPCRome screen; details: Compound concentration 1.0 uM
[32] = target: Prostaglandin E2 receptor EP1 subtype (Homo sapiens) (UniProt P34995); test: RLU of PTGER1 at 1.0 µM in the […] PRESTO-Tango GPCRome screen; details: Compound concentration 1.0 uM
[33] = target: Prostaglandin E2 receptor EP2 subtype (Homo sapiens) (UniProt P43116); test: RLU of PTGER2 at 1.0 µM in the […] PRESTO-Tango GPCRome screen; details: Compound concentration 1.0 uM
[34] = target: Trace amine-associated receptor 8 (Homo sapiens) (UniProt Q969N4); test: RLU of TAAR8 at 1.0 µM in the […] PRESTO-Tango GPCRome screen; details: Compound concentration 1.0 uM
[35] = target: Vasoactive intestinal polypeptide receptor 2 (Homo sapiens) (UniProt P41587); test: RLU of VIPR2 at 1.0 µM in the […] PRESTO-Tango GPCRome screen; details: Compound concentration 1.0 uM

Sequence of G-protein coupled receptor 62 (Homo sapiens) (Q9BZJ7 whole entry): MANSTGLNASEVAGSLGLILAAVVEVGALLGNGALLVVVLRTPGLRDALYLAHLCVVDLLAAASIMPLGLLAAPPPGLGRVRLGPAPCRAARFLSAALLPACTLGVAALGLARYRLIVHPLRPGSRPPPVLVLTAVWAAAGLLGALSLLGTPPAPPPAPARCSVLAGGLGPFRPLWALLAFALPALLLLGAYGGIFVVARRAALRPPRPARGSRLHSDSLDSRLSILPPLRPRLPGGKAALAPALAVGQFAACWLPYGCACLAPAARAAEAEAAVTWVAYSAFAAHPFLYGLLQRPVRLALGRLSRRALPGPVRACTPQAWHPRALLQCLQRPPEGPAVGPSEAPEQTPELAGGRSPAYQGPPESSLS
Sequence of Type-1 angiotensin II receptor (P30556 whole entry): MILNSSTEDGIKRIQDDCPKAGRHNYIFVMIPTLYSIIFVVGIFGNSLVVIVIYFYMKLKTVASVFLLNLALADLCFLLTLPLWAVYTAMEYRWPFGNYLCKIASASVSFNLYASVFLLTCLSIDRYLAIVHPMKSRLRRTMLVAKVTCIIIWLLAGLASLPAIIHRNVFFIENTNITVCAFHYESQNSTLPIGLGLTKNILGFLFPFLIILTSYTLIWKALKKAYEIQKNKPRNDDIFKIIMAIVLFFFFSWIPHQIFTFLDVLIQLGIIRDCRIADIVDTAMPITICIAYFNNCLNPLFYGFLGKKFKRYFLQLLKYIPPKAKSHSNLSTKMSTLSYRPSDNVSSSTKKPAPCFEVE
Sequence of Histamine H3 receptor (Homo sapiens) (Q9Y5N1 whole entry): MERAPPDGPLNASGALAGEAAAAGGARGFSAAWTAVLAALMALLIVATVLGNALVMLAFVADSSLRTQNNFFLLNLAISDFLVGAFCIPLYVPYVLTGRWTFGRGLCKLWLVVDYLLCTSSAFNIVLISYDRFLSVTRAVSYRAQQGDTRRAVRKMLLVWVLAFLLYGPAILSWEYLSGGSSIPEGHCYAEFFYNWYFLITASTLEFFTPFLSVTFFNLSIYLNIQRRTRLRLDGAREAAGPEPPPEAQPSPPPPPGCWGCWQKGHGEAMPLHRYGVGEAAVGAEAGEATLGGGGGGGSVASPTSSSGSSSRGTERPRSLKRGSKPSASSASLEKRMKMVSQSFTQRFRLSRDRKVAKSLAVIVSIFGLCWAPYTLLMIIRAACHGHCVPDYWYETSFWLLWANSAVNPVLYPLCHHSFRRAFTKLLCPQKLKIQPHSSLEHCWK
Sequence of Probable G-protein coupled receptor 152 (Homo sapiens) (Q8TDT2 whole entry): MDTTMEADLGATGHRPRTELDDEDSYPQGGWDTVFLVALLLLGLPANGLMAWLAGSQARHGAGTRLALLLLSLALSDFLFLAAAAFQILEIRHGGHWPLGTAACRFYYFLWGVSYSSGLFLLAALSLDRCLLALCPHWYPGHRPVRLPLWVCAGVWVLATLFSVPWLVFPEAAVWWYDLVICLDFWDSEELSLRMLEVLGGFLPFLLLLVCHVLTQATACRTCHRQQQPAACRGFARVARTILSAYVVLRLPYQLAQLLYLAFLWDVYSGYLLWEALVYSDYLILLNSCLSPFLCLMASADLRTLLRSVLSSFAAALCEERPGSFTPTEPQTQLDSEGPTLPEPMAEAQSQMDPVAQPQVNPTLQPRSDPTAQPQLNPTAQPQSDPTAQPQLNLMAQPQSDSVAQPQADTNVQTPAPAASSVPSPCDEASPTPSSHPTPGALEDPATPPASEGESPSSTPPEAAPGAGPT
Sequence of Glucagon-like peptide 1 receptor (Homo sapiens) (P43220 whole entry): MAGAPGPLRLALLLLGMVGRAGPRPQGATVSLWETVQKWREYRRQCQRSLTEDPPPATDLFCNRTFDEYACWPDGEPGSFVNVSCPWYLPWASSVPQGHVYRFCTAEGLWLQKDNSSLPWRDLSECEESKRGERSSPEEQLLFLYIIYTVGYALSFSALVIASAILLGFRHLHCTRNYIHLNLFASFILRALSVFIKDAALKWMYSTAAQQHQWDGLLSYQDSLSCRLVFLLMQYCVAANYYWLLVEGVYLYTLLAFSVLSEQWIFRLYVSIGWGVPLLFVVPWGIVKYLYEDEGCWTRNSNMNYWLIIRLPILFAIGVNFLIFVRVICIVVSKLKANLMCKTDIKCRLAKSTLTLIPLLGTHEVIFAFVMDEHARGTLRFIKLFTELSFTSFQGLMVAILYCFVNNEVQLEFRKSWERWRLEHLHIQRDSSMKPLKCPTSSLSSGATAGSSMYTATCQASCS
Sequence of Melanin-concentrating hormone receptor 2 (Homo sapiens) (Q969V1 whole entry): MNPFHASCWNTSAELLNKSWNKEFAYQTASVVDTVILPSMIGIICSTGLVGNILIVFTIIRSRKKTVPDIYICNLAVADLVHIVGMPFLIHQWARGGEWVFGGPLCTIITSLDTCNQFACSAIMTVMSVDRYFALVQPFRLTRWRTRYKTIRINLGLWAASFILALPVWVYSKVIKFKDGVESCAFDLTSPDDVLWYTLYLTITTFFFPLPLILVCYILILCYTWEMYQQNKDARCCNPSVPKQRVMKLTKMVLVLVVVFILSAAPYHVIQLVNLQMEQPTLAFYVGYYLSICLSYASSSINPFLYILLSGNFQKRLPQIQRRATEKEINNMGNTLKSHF
Sequence of Melanin-concentrating hormone receptor 1 (Homo sapiens) (Q99705 whole entry): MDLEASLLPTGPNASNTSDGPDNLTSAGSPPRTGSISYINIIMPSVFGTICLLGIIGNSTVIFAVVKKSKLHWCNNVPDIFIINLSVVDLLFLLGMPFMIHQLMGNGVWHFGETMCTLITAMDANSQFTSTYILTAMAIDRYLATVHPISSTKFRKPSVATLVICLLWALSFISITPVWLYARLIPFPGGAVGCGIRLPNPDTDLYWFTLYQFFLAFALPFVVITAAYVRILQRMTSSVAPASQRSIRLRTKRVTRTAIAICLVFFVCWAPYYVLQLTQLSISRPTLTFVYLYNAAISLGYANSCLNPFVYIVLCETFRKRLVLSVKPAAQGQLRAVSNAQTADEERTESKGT
Sequence of Cannabinoid receptor 1 (Homo sapiens) (P21554 whole entry): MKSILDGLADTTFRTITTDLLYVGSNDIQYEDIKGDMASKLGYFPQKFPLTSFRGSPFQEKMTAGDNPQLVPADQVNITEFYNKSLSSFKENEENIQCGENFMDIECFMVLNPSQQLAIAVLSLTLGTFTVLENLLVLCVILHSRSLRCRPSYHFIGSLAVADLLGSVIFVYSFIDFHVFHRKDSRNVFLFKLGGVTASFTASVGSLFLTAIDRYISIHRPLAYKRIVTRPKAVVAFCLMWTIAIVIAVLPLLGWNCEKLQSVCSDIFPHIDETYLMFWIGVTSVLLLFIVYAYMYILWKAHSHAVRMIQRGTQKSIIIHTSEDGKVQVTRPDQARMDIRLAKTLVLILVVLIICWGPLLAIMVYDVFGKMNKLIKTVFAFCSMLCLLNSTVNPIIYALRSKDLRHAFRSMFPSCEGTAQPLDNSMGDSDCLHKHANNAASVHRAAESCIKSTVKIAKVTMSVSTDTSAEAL
Sequence of Prostaglandin E2 receptor EP2 subtype (Homo sapiens) (P43116 whole entry): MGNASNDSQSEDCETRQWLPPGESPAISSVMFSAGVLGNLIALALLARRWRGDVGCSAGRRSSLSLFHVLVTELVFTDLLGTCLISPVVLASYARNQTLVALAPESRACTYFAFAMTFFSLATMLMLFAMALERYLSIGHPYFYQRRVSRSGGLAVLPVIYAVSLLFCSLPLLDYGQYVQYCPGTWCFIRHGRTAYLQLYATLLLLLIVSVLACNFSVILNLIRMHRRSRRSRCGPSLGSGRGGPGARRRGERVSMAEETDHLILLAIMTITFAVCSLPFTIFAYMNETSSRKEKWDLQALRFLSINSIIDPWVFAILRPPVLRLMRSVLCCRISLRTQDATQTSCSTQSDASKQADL
Sequence of Mas-related G-protein coupled receptor member D (Homo sapiens) (Q8TDS7 whole entry): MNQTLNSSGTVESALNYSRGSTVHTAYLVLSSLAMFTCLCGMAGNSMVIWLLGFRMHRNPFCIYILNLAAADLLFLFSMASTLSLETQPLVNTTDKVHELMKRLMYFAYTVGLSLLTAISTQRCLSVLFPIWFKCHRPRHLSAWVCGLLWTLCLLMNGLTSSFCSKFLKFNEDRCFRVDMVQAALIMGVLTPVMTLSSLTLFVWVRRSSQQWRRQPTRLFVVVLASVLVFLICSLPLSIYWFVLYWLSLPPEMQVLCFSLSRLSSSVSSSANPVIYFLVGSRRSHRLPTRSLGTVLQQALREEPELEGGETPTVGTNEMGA
Sequence of Neurotensin receptor type 1 (Homo sapiens) (P30989 whole entry): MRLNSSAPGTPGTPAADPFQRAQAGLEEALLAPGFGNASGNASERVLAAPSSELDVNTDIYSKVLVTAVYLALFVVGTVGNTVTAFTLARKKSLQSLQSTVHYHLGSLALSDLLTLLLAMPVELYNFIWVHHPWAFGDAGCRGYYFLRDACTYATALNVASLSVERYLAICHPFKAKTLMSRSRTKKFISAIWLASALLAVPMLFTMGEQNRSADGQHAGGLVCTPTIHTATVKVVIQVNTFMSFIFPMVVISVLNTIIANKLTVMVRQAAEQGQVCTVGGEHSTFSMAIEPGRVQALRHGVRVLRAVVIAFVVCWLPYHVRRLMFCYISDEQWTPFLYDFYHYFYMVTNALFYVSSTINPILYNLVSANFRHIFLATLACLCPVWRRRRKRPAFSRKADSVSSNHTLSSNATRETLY
Sequence of Proto-oncogene Mas (Homo sapiens) (P04201 whole entry): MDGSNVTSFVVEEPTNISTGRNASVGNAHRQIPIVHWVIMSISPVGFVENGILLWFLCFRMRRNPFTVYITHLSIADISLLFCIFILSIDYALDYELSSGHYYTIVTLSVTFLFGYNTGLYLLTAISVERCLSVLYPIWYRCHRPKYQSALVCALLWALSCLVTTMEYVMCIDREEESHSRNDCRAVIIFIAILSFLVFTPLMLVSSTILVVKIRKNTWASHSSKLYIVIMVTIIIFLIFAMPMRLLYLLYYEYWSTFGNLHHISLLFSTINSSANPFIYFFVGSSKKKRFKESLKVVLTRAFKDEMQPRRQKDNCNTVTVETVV

`CCCCC(=O)N1CC2(C1)CN(c1ccccc1-c1nnn[nH]1)C2` was tested, and the EC50 [1] was > 50 µM (not active), the RLU [2] was 19400 and the RLU [3] was 5320. For the same compound, the RLU [4] was -688, the RLU [5] was 2840 and the RLU [6] was -2940. It also gave an RLU [7] of -5260, an RLU [8] of 761 and an RLU [9] of -88.5. It also gave an RLU [10] of 1330, an RLU [11] of 3480 and an RLU [12] of -70. The RLU [13] was 6270, the RLU [14] was -383 and the RLU [15] was -483. It also gave an RLU [16] of -285, an RLU [17] of 435000 and an RLU [18] of 477000. It also gave an RLU [19] of -9110, an RLU [20] of -6780 and an RLU [21] of -2870. It also gave an RLU [22] of -270, an RLU [23] of -1360 and an RLU [24] of 5930. The RLU [25] was 1.74, the RLU [26] was -630 and the RLU [27] was 1950. It also gave an RLU [28] of -116, an RLU [29] of -1300 and an RLU [30] of 156. The RLU [31] was 82.9, the RLU [32] was -390 and the RLU [33] was 613. The RLU [34] was -4860 and the RLU [35] was -824.
